Results published in article PMC11202142, “Succinimide Derivatives as Acetylcholinesterase Inhibitors—In Silico and In Vitro Studies” (Current Issues in Molecular Biology, 2024).

B1: acetylcholinesterase (AChE) (Homo sapiens) (protein)
chain: EGREDAELLVTVRGGRLRGIRLKTPGGPVSAFLGIPFAEPPMGPRRFLPPEPKQPWSGVVDATTFQSVCYQYVDTLYPGFEGTEMWNPNRELSEDCLYLNVWTPYPRPTSPTPVLVWIYGGGFYSGASSLDVYDGRFLVQAERTVLVSMNYRVGAFGFLALPGSREAPGNVGLLDQRLALQWVQENVAAFGGDPTSVTLFGESAGAASVGMHLLSPPSRGLFHRAVLQSGAPNGPWATVGMGEARRRATQLAHLVGCPPGGTGGNDTELVACLRTRPAQVLVNHEWHVLPQESVFRFSFVPVVDGDFLSDTPEALINAGDFHGLQVLVGVVKDEGSYFLVYGAPGFSKDNESLISRAEFLAGVRVGVPQVSDLAAEAVVLHYTDWLHPEDPARLREALSDVVGDHNVVCPVAQLAGRLAAQGARVYAYVFEHRASTLSWPLWMGVPHGYEIEFIFGIPLDPSRNYTAEEKIFAQRLMRYWANFARTGDPNEPRDPKAPQWPPYTAGAQQYVSLDLRPLEVRRGLRAQACAFWNRFLPKLLSATDTLDEAERQWKAEFHRWSSYMVHWKNQFDHYSKQDRCSDL

How the values were obtained:
[1] = target: acetylcholinesterase (AChE) (Homo sapiens, UniProt P22303); assay: Ellman spectrophotometric assay, Lineweaver-Burk kinetics; format: biochemical
[2] = substrate: CC(=O)SCC[N+](C)(C)C; assay: Ellman assay, Km from Lineweaver-Burk plot without inhibitor; format: biochemical, Homo sapiens

Row | Molecule | IC50 [1] | Km [2] | Vmax [2]
1 | CCC12C(=O)C(CC)(C(c3ccccc3)=C1c1ccccc1)C1C(=O)NC(=O)C12 (stereo not shown) [I, diethyl (I) succinimide derivative] | 31 ± 3 µM |  | 
2 | CC12C(=O)C(C)(C(c3ccccc3)=C1c1ccccc1)C1C(=O)NC(=O)C12 (stereo not shown) [II, dimethyl (II) succinimide derivative] | 29 ± 2 µM |  | 
3 | B1 |  | 960 µM | 630 µM/min
